In publication PMC11079064, “Discovery of a brain penetrant small molecule antagonist targeting LPA1 receptors to reduce neuroinflammation and promote remyelination in multiple sclerosis” (Scientific Reports, 2024):
“Also recorded” adds a separate entry of the source.

What was measured:
MOG-EAE mouse model = assay: MOG-EAE mouse model, visual evoked potentials; assay type: in vivo; details: day 21
Protocol: To further assess myelin status, we measured conductance velocity in the optic nerve, a heavily myelinated tract that is sensitive to demyelination. To measure conductance, we utilized visual evoked potentials (VEPs), a measure for which clinical translatability makes it an especially salient endpoint[42],[43]. VEPs were measured on day 21. […] In comparison, latency in MOG immunized animals had slowed to 60.9 ms.
VEP recordings were conducted 21–24 days post-MOG induction (for simplification, this will be referred to as a nominal Day 21 VEP throughout this document). To do this, animals were placed in a room with red light conditions and allowed to adapt for 1 h. Animals were anesthetized with an intraperitoneal injection of ketamine/Xyalazine (75/10 mg/kg). Pupils were dilated with 1.0% tropicamide (1 drop per eye) (Akorn Pharmaceuticals, Lake Forest, IL). One minute following application tropicamide, one drop of Genteal (Alcon Laboratories, Fort Worth, TX) was applied to each eye to maintain ocular moisture during anesthesia.
VEPs were conducted using a Celeris system (Diagnosys, Lowell, MA). […] Flash VEPs were recorded from each eye independently and simultaneously. […] VEP waveforms were analyzed using Espion (Diagnosys, Lowell, MA). N1 latency for each eye was determined by averaging N1 from 3 independent VEP traces. Similarly, P1–N1 and N1–P1 amplitudes were determined. […]

microglia [1] = assay: LPA-induced microglial activation in hippocampal slices; assay type: cell-based, mouse; details: 3 µM, 10 µM LPA
Protocol: Microglial activation was then triggered by the addition of 10 µM LPA, slices incubated for 3 additional hours, then fixed. Slices were immunostained against IBA1 and microglial perimeters were measured as a mean of differentiating between ramified/resting versus rounded/activated microglia.
Brains were harvested from mice (postnatal day 20, Charles River). […] 400 µm thick coronal slices were cut on a McIlwain tissue chopper and returned to dissection media and separated manually. […] Slices were incubated for 2 h at 37 °C (4 slices per condition). Microglial activation was initiated by adding LPA (18:1, Avanti Polar Lipids) to a final concentration of 10 µM and incubated for 3 h. Slices were then fixed in formalin and for 2 h.
For immunohistochemistry, slices were washed for 3 × 15 min in 0.5% Triton-X100 and DPBS. Slices were then stained using IBA-1 antibody (Thermo Scientific) in 10% normal goat serum with 0.5% Triton-X100 in DPBS overnight on a rocker. Slices were then washed in 0.5% Triton-X100 in DPBS 3 × 15 min. Goat anti-mouse Alexa 564 (1:500, Invitrogen, Carlsbad, CA) and […] (Invitrogen, Carlsbad, CA) were diluted in DPBS with 0.5% Triton-X100 and incubated for 2h. Slices were washed 3 × 15 min in DPBS with 0.5% Triton-X100, mounted with Fluoromount and imaged on a Nikon A1R confocal microscope.

microglia [2] = assay: Microglial myelin debris phagocytosis assay; assay type: cell-based, rat; details: any concentration, activated microglia, 90 min myelin debris
Protocol: Fluoromyelin-labeled myelin debris was added for 90 min and then the cultures were fixed. IBA1^+/fluoromyelin^+ cells were quantified and normalized to total IBA1^+ cells.
For phagocytosis, microglia were harvested from cortical cultures generated from P2 rats. Cortices were isolated, meninges removed, minced and digested in 0.05% trypsin (Invitrogen, Carlsbad, CA, Carlsbad, CA) for 15 min at 37 °C. Tissue was allowed to settle, trypsin removed and HBSS (Corning, Glendale, AZ) with 20% FBS (20% HBSS) was added to halt further digestion. Tissue was washed again in 20% HBSS and resuspended in DMEM with 10% FBS and penicillin/streptomycin (10% DMEM). Cells were plated in a T150 flask and cultured for 10 days with media changes every other day. Microglia were mechanically isolated by tapping flask against the hood surface. Microglia were transferred to a conical and centrifuged at 800 × g for 15 min and resuspended in 10% DMEM, plated in 96 wells at a density of 5000/well and cultured for 3 days. […] Fluoromyelin labeled myelin debris was added to each well and incubated for 90 min. Microglia were then fixed and immunostained for IBA1 (Invitrogen, Carlsbad, CA, Carlsbad, CA). […]
Supplemental Figure 7. […] Total IBA1^+ and IBA1^+/fluoromyelin^+ cells were counted. […]

Compound: COc1ccc(NC(=O)N(c2ccccc2C(C)C)C2CCC(C(=O)O)CC2)c(OC(F)F)n1 (stereo not shown) [PIPE-791]
- VEP N1 latency (MOG-EAE mouse model; 0.3 mg/kg): 54.6 ms
- VEP N1 latency (MOG-EAE mouse model; 3 mg/kg): 52 ms
- effect on LPA-induced decrease in microglial perimeter length (microglia [1]): inhibited; also recorded: prevented
- effect on myelin phagocytosis compared to vehicle (microglia [2]): No significant decrease
